Each block holds one compound with its values, some of them ahead of it. Active and inactive are the calls of the source. No cut-off for these calls is given here.
What was measured:
Adenosine receptor A1 [1] = target: T1, Adenosine receptor A1 (Homo sapiens, UniProt P30542); assay: Antagonist activity at human adenosine A1 receptor expressed in CHO cells coexpressing cAMP response element assessed as inhibition of agonist-induced response by SPAP reporter gene assay in presence of forskolin; type: functional, cell-based
T1 sequence (P30542 whole entry): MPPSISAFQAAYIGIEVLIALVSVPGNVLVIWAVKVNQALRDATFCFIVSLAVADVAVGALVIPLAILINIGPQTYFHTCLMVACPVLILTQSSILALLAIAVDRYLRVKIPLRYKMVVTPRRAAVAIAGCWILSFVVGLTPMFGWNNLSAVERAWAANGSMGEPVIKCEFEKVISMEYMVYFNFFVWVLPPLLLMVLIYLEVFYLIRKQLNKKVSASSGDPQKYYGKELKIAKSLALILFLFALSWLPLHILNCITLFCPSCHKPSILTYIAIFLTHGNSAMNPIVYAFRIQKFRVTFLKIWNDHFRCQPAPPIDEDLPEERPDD

Adenosine receptor A1 [2] = target: T2, Adenosine receptor A1 (Bos taurus, UniProt P28190); assay: Displacement of [3H]ADAC from adenosine A1 receptor in bovine cerebral cortical membranes after 120 mins; type: cell membranes
T2 sequence (P28190 whole entry): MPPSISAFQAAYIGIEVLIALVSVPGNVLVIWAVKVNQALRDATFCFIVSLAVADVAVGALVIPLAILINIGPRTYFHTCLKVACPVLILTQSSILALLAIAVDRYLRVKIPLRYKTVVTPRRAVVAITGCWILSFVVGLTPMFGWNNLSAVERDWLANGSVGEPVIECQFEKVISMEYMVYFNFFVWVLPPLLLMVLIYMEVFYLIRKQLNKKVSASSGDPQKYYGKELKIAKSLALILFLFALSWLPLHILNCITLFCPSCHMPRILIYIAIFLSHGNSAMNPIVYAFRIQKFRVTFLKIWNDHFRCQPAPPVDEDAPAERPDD

Adenosine receptor A1 [3] = target: T3, Adenosine receptor A1 (Rattus norvegicus, UniProt P25099); assay: Displacement of [3H]ADAC from adenosine A1 receptor in rat cerebral cortical membranes after 120 mins; type: cell membranes, Membrane
T3 sequence (P25099 whole entry): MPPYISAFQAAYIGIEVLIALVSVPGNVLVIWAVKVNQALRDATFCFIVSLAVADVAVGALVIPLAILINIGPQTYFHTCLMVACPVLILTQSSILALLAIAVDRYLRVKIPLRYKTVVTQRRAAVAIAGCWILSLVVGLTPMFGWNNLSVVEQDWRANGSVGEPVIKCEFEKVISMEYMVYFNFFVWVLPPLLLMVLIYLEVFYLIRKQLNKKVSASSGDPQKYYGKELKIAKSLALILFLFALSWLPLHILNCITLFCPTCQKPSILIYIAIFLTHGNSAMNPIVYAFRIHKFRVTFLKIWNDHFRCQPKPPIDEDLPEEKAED

Adenosine receptor A2a [4] = target: T4, Adenosine receptor A2a (Homo sapiens, UniProt P29274); assay: Displacement of [3H]CGS21680 from adenosine A2A receptor in human striatal membranes; type: cell membranes, Striatum, Membrane
Adenosine receptor A1 [5] = target: T1, Adenosine receptor A1; assay: Displacement of [3H]DPCPX from adenosine A1 receptor in human cortical membranes; type: cell membranes
Adenosine receptor A3 [6] = target: T5, Adenosine receptor A3 (Homo sapiens, UniProt P0DMS8); type: cell-based, CHO
T5 sequence (P0DMS8 whole entry): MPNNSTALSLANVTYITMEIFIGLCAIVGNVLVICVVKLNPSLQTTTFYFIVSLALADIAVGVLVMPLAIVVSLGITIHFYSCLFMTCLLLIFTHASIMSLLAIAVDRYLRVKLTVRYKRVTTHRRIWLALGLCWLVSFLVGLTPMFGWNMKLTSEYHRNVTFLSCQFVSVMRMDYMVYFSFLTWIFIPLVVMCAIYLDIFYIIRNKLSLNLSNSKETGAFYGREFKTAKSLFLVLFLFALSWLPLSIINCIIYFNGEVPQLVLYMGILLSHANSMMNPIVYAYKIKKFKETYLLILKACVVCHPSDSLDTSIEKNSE

Adenosine receptor A3 [7] = target: T5, Adenosine receptor A3; type: cell-based, CHO; remark: listed apart in the source
[8] = target: T6, Adenosine receptor A1 (Homo sapiens) (UniProt P30542); assay: Displacement of [3H]R-PIA from human adenosine A1 receptor expressed in CHO cells at 10 uM after 60 mins by […] analysis relative to control; type: cell-based
T6 sequence (whole entry): T1 sequence (P30542 whole entry)

Adenosine receptor A2a [9] = target: T4, Adenosine receptor A2a; assay: Displacement of [3H]CGS21680 from human adenosine A2A receptor expressed in HEK293 cells after 60 mins by […] analysis; type: cell-based
Adenosine receptor A3 [10] = target: T5, Adenosine receptor A3; assay: biochemical
Description: (§1) Displacement of [125I]I-AB-MECA from human adenosine A3 receptor expressed in CHO cells after 90 mins by gamma counting analysis

Adenosine receptor A3 [11] = target: T5, Adenosine receptor A3
Description: Competitive binding affinity to human adenosine A3 receptor expressed in CHO cells after 90 mins by flow cytometric analysis in presence of MRS5449

[12] = target: T6, Adenosine receptor A1 (Homo sapiens); assay: Competitive antagonist activity at GFP-tagged adenosine A1 receptor (unknown origin) expressed in CHO cells assessed as inhibition of forskolin-stimulated cAMP accumulation by liquid scintillation counting analysis; type: functional, cell-based
[13] = target: T6, Adenosine receptor A1 (Homo sapiens); assay: Competitive antagonist activity at GFP-tagged adenosine A1 receptor (unknown origin) expressed in CHO cells assessed as stimulation of inositol phosphate accumulation by scintillation counting analysis; type: functional, cell-based
Adenosine receptor A3 [14] = target: T5, Adenosine receptor A3; remark: listed apart in the source
Description: as §1

[15] = target: T6, Adenosine receptor A1 (Homo sapiens); assay: Displacement of [3H]DPCPX from human adenosine A1 receptor expressed in CHO cells up to 0.1 mM after 2 hrs by scintillation counting analysis; type: cell-based

T4 sequence (P29274 whole entry): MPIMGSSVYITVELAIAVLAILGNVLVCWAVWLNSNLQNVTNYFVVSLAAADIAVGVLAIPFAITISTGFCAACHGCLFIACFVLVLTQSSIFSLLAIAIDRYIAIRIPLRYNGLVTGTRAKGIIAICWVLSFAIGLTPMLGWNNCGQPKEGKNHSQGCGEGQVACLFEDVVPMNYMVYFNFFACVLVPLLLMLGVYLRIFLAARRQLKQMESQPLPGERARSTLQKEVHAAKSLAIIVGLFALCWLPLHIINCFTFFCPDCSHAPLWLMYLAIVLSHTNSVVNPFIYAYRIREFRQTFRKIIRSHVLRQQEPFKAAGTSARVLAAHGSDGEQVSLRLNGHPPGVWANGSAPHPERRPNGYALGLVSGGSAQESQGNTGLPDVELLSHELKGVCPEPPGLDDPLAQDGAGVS

Structure (SMILES): CCNC(=O)[C@H]1O[C@@H](n2cnc3c(NCCCCNc4ccc([N+](=O)[O-])c5nonc45)ncnc32)[C@H](O)[C@@H]1O
Ki (Adenosine receptor A2a [4]): > 10000 nM
Ki (Adenosine receptor A1 [5]): > 10000 nM
Ki (Adenosine receptor A3 [6]): 389 nM

Structure (SMILES): CCNC(=O)[C@H]1O[C@@H](n2cnc3c(NCCCCCCCCCCCNC(=O)COc4ccc(/C=C/C5=[N+]6C(=Cc7ccc(-c8cccs8)n7[B-]6(F)F)C=C5)cc4)ncnc32)[C@H](O)[C@@H]1O
Kd (Adenosine receptor A1 [1]): 12.9 nM

Structure (SMILES): O=C(Cc1ccc(NC(=O)Cc2ccc(Nc3ncnc4c3ncn4[C@@H]3O[C@H](CO)[C@@H](O)[C@H]3O)cc2)cc1)NCCNc1ccc([N+](=O)[O-])c2nonc12
Ki (Adenosine receptor A1 [2]): 1.62 nM
Ki (Adenosine receptor A1 [3]): 4.37 nM

Structure (SMILES): CC[C@@H]1CN2C(=O)N(C)c3nc(-c4cc(Cl)cc(Cl)c4Cl)[nH]c3C2=N1
Ki (Adenosine receptor A3 [10]): 0.441 nM
Ki (Adenosine receptor A3 [11]): 9.54 nM

Structure (SMILES): Nc1nc(NCCc2ccc(O)cc2)nc2nc(-c3ccco3)nn12 [ZM-241385]
Ki (Adenosine receptor A3 [14]): 743 nM

Structure (SMILES): CCNC(=O)[C@H]1O[C@@H](n2cnc3c(NCCCCNC(=O)CCC4=[N+]5C(=Cc6c(C)cc(C)n6[B-]5(F)F)C=C4)ncnc32)[C@H](O)[C@@H]1O
Activity [15]: inactive

Structure (SMILES): CCNC(=O)[C@H]1O[C@@H](n2cnc3c(NCCCCCCCCCCNc4ccc([N+](=O)[O-])c5nonc45)ncnc32)[C@H](O)[C@@H]1O
Ki (Adenosine receptor A2a [4]): 6170 nM
Ki (Adenosine receptor A1 [5]): 6460 nM
Ki (Adenosine receptor A3 [6]): 28.2 nM

Structure (SMILES): CCNC(=O)[C@H]1O[C@@H](n2cnc3c(NCCCCNC(=O)CCCCCCCNS(=O)(=O)c4cccc5c(N(C)C)cccc45)ncnc32)[C@H](O)[C@@H]1O
Activity [15]: inactive

Now from value to compound:

Kd (Adenosine receptor A1 [1]): 17.8 nM
Structure (SMILES): CCNC(=O)[C@H]1O[C@@H](n2cnc3c(NCCOCCOCCNC(=O)COc4ccc(/C=C/C5=[N+]6C(=Cc7ccc(-c8cccs8)n7[B-]6(F)F)C=C5)cc4)ncnc32)[C@H](O)[C@@H]1O

Ki (Adenosine receptor A1 [2]): 9.33 nM
Ki (Adenosine receptor A1 [3]): 126 nM
Structure (SMILES): CCCn1c(=O)c2[nH]c(-c3ccc(OCC(=O)NCCNC(=S)Nc4ccc(C5c6ccc(O)cc6OC6=CC(=O)C=CC65)c(C(=O)O)c4)cc3)nc2n(CCC)c1=O (stereo not given)

Kd (Adenosine receptor A1 [1]): 16.2 nM
Structure (SMILES): CCNC(=O)[C@H]1O[C@@H](n2cnc3c(NCCCCNC(=O)COc4ccc(/C=C/C5=[N+]6C(=Cc7ccc(-c8cccs8)n7[B-]6(F)F)C=C5)cc4)ncnc32)[C@H](O)[C@@H]1O

Ki (Adenosine receptor A3 [7]): 724 nM
inhibition [8]: 7%
Ki (Adenosine receptor A2a [9]): 468 nM
Structure (SMILES): Cn1cc2c(nc(NCCCCNC(=S)Nc3ccc(C4c5ccc(O)cc5OC5=CC(=O)C=CC54)c(C(=O)O)c3)n3nc(-c4ccco4)nc23)n1 (stereo not given)

Ki (Adenosine receptor A1 [2]): 2.88 nM
Ki (Adenosine receptor A1 [3]): 7.24 nM
Structure (SMILES): O=C1C=CC2C(=C1)Oc1cc(O)ccc1C2c1ccc(NC(=S)NCCNC(=O)Cc2ccc(NC(=O)Cc3ccc(Nc4ncnc5c4ncn5[C@@H]4O[C@H](CO)[C@@H](O)[C@H]4O)cc3)cc2)cc1C(=O)O (stereo not given in full)

Ki (Adenosine receptor A3 [7]): 2400 nM
inhibition [8]: 5%
Ki (Adenosine receptor A2a [9]): 2510 nM
Structure (SMILES): Cn1cc2c(nc(NCCCNC(=S)Nc3ccc(C4c5ccc(O)cc5OC5=CC(=O)C=CC54)c(C(=O)O)c3)n3nc(-c4ccco4)nc23)n1 (stereo not given)

pKb [12]: 6.4
pKb [13]: 6.5
Structure (SMILES): CCCn1c(=O)c2[nH]c(-c3ccc(OCC(=O)NCCNC(=O)CCCCCNC(=O)COc4ccc(/C=C/C5=[N+]6C(=Cc7ccc(-c8cccs8)n7[B-]6(F)F)C=C5)cc4)cc3)nc2n(CCC)c1=O

Ki (Adenosine receptor A1 [2]): 17 nM
Ki (Adenosine receptor A1 [3]): 97.7 nM
Structure (SMILES): CCCN1C(=O)C2NC(c3ccc(OCC(=O)NCCNC(=O)NCC(=O)NCC(=O)NCC(=S)c4ccc(C5c6ccc(O)cc6OC6=CC(=O)C=CC65)c(C(=O)O)c4)cc3)=NC2N(CCC)C1=O (stereo not given)

— ChEMBL document CHEMBL2412992, “Fluorescent ligands for adenosine receptors” (Bioorg Med Chem Lett, 2013)
